# Ends that are not written are not given here.
# How the values were obtained:
# [1] = test system: pig model of transient AMI; experiment: Pig model of transient AMI: TTC staining and heart infarct; assay type: in vivo, Chinese Bama miniature pigs; conditions: pigs, 2 mg/kg i.v. twice, day 30, TTC staining; vs saline, P<0.01
# [2] = pigs, 2 mg/kg i.v. twice; vs saline group
# From the text: The heart rate (a), electrocardiogram (QRS duration (b), QRS voltage (c), T voltage (d) and ST voltage (e)), and body weight (f) were monitored before artery occlusion, after artery occlusion and after reperfusion. […] The NIMoEsh-Tat group: N=5; the saline group: N=5. Data are presented as mean±S.E.M.
# The cardioprotective efficacy of the NIMoEsh-Tat peptide was also investigated in Chinese Bama miniature pigs. Transient AMI was induced in these pigs by occluding the left circumflex coronary artery for 1 hour, followed by blood reperfusion. Pigs received one i.v. injection of the NIMoEsh-Tat peptide (2 mg/kg) or saline 40 min after occlusion and another i.v. injection 24 hours after reperfusion. The pigs were evaluated for heart function on day 30 before they were sacrificed for histological analysis.
# [3] = test system: primary cardiomyocyte culture; experiment: Cell death assays in H2O2-treated primary cardiomyocyte culture; assay type: cell-based, Sprague Dawley rats; conditions: 10 uM peptide, 30 min before 300 uM H2O2 (4 hrs) and during 12 hr recovery
# Procedure: Hearts were removed from P1-2 Sprague Dawley rats and cut into 1 mm^3 cubes. The heart tissue was then digested in the cell digestion buffer at 37° C. for 4 min and centrifuged at 200 rpm for 1 min to remove the supernatant. The pellet was digested in the cell digestion buffer again at 37° C. until it was fully digested and then centrifuged at 200 rpm for 1 min to remove the debris. The sample was mixed with FBS to neutralize trypsin and collagenase and then centrifuged at 1000 rpm for 5 min to remove the supernatant. Cardiomyocytes were isolated from the sample by differential adhesion and then cultured in plates in the cell culture medium. Primary cardiomyocyte cultures were maintained in the 37° C. incubator with 95% […] and 5% CO2 for 5 days before being used for experiments.
# Cell death of primary cardiomyocyte culture was measured using a variety of assays. MTT and the activity of creatine kinase, lactate dehydrogenase, malondialdehyde and superoxide dismutase were measured using commercial kits and according to manufacturer's instructions. Cell apoptosis assays were conducted by treating primary cardiomyocyte culture with the Annexin V-FITC cytotoxicity kit, followed by flow cytometry (BD, FACSlalibur) to determine the apoptosis percentage.
# Primary cardiomyocyte cultures were treated with 300 uM H2O2 for 4 hours to induce oxidative stress. Then, cardiomyocytes were placed back in the normal culture medium for 12 hours before cell death analysis. 30 min before H2O2 treatment and during the 12 hour-recovery period, some cardiomyocytes were treated with 10 uM NIMoEsh-Tat peptide.
# rat model of AMI [4] = experiment: Rat model of AMI: heart function (hemodynamic) measurement; conditions: rats, 20 mg/kg i.v. at 0, 24 and 48 hours after surgery, measured 4 weeks after last injection
# Procedure: Rats were subjected to AMI by ligation of the left anterior descending coronary artery as described previously (Yu, J. G. et al. Acta Pharmacol Sin 34, 1508-1514, doi:10.1038/aps.2013.147 (2013)). Briefly, rats were anesthetized with 100 mg/kg ketamine hydrochloride and 10 mg/kg diazepam by intraperitoneal injection and then received artificial ventilation using a respirator (Shanghai Alcott Biotech, China, ALC-V8) with a tidal volume of 20 mL and a respiratory rate of 60/min. The heart was exteriorized through the 4th intercostal space and the left anterior descending coronary artery was ligated using a 6-0 suture. Rats were placed back in their home cages after the incision was closed. Sham rats underwent the same protocol except without ligation of the coronary artery.
# Hemodynamic assessments in rats were conducted as described by Yu et al. (Acta Pharmacol Sin 34, 1508-1514, doi:10.1038/aps.2013.147 (2013)). Briefly, rats were anesthetized with 1.25 g/kg 25% urethane and a polyethylene catheter connected to a pressure transducer (Powerlab 30, ADlnstruments) was inserted into the right carotid artery and then advanced into the left ventricle cavity. The mean heart rate, systolic blood pressure, left ventricular systolic pressure (LVSP), left ventricular end diastolic pressure (LVEDP), and maximal rates of pressure rise (+dp/dtmax) and decline (−dp/dtmax) were recorded for 30 min and then analyzed.
# Rats receiving sham surgery were used as control.
# rat model of AMI [5] = experiment: Rat model of AMI: TTC staining and measurement of heart infarct; assay type: in vivo, Sprague Dawley rats; conditions: rats, 20 mg/kg i.v. immediately after ligation, hearts removed four hours later; vs saline, P<0.01
# [6] = test system: pig model of transient AMI; experiment: Pig model of transient AMI: histological analysis of hearts (H & E); assay type: in vivo, Chinese Bama miniature pigs
# [7] = test system: pig model of transient AMI; experiment: Pig model of transient AMI: transthoracic echocardiography; assay type: in vivo, Chinese Bama miniature pigs; conditions: pigs, 2 mg/kg i.v. 40 min after occlusion and 24 hours after reperfusion, day 30, vs saline
# [8] = male pigs, 2 mg/kg, N number 5, day 30
# [9] = male pigs, 2 mg/kg, N number 5, + = slight (almost invisible)
# [10] = male pigs, 2 mg/kg, N number 5, ++ = mild (visible but very small)
sequence,measurement,setting,value
"WAAYRTHSVDYGRKKRRQRRR [NIMoEsh-Tat, WAAYRTHSVD-YGRKKRRQRRR]",volume of AMI-induced heart infarct (FIGS. 3e and 3f),[1],reduced the volume of AMI-induced heart infarct
same,body weight recovery after AMI (FIG. 4),[2],same level of body weight recovery
same,"H2O2-induced cell death, cell apoptosis assay (FIG. 1b)","[3]; Annexin V-FITC, flow cytometry",effectively reduced H2O2-induced cell death
same,CK activity in the culture medium (FIG. 1c),[3]; vs H2O2 group,"did not fully rescue H2O2-induced increase of CK activity, there was a trend of decreased CK activity"
same,"H2O2-induced cell death, MTT assay (FIG. 1a)",[3]; vs H2O2 group,effectively reduced H2O2-induced cell death
same,LDH activity in the culture medium (FIG. 1e),[3]; vs H2O2 group,effectively reduced H2O2-induced cell death
same,MDA activity in cultured cells (FIG. 1d),[3]; vs H2O2 group,effectively reduced H2O2-induced cell death
same,SOD activity in cultured cells (FIG. 1f),[3]; vs H2O2 group,effectively reduced H2O2-induced cell death
same,"+dp/dtmax, maximal rate of pressure rise (FIG. 2g)",rat model of AMI [4]; vs saline,rescued heart function after AMI
same,left ventricular systolic pressure (FIG. 2e),rat model of AMI [4]; vs saline,rescued heart function after AMI
same,"−dp/dtmax, maximal rate of pressure decline (FIG. 2h)",rat model of AMI [4]; vs saline,rescued heart function after AMI
same,heart rate (FIG. 2c),rat model of AMI [4]; vs sham,neither saline or NIMoEsh-Tat peptide changed
same,systolic blood pressure (FIG. 2d),rat model of AMI [4]; vs sham,neither saline or NIMoEsh-Tat peptide changed
same,percentage of heart tissue infarct after AMI (FIG. 2a-b),rat model of AMI [5],significantly reduced
same,"Atrial fibrillation, Total (number of pigs)",[6]; [8],5
same,"Bleeding, Total (number of pigs)",[6]; [8],4
same,"Granuloma, Total (number of pigs)",[6]; [8],1
same,"Inflammation, Total (number of pigs)",[6]; [8],4
same,"Necrosis, Total (number of pigs)",[6]; [8],4
same,"Pericarditis, Total (number of pigs)",[6]; [8],0
same,"Atrial fibrillation, + (number of pigs)",[6]; [9],2
same,"Bleeding, + (number of pigs)",[6]; [9],4
same,"Granuloma, + (number of pigs)",[6]; [9],1
same,"Inflammation, + (number of pigs)",[6]; [9],4
same,"Pericarditis, + (number of pigs)",[6]; [9],0
same,"Atrial fibrillation, ++ (number of pigs)",[6]; [10],2
same,"Inflammation, ++ (number of pigs)",[6]; [10],0
same,"Necrosis, ++ (number of pigs)",[6]; [10],0
same,"Atrial fibrillation, +++ (number of pigs)","[6]; male pigs, 2 mg/kg, N number 5, +++ = moderate (visible and quantifiable)",1
same,"Necrosis, grade not given (number of pigs)","[6]; male pigs, 2 mg/kg, N number 5, grade cell empty, line above ++",4
same,"Pericarditis, grade not given (number of pigs)","[6]; male pigs, 2 mg/kg, N number 5, grade cell empty, line below +",0
same,"AMI-induced pathology observed under microscope, summary","[6]; pigs, 2 mg/kg i.v. twice, day 30, vs saline controls",much less AMI-induced pathology
same,"fibrillation in pig heart, H & E image (FIG. 3g)","[6]; pigs, 2 mg/kg i.v. twice, day 30, vs saline-treated pig heart",less fibrillation
same,"stroke volume (SV, FIG. 3c)",[7]; P<0.001,rescued AMI-induced function deficits
same,"ejection fraction (EF, FIG. 3d)",[7]; P<0.05,rescued AMI-induced function deficits

# Reference: patent US20220362326A1, “INHIBITING ZD17-JNK I[…] A THERAPY FOR ACUTE MYOCARDIAL INFARCTION” (The University of British Columbia, priority 2019, published 2022)
